# Laboratory results as given in PMC11774245 (Journal of Natural Products, 2025).
# Legend:
# [1] = molecular target: T1, CB2 receptor (Homo sapiens, UniProt P34972); experiment: radioligand displacement of [3H]-CP55940 on membranes; assay type: binding; conditions: read-out: % inhibition at 10 μM; none at 1 μM %
# T1 construct: gene CNR2
# [2] = molecular target: T2, 5-HT1A receptor (Homo sapiens, UniProt P08908); experiment: radioligand displacement of [3H]-8-hydroxy-DPAT on membranes; supported by PathHunter β-arrestin PAM assay in CHO-K1 cells with human 5-HT1A; assay type: binding; conditions: read-out: % inhibition at 10 μM; 20% at 1 μM %
# T2 construct: gene HTR1A
# T2 sequence (P08908 1-422): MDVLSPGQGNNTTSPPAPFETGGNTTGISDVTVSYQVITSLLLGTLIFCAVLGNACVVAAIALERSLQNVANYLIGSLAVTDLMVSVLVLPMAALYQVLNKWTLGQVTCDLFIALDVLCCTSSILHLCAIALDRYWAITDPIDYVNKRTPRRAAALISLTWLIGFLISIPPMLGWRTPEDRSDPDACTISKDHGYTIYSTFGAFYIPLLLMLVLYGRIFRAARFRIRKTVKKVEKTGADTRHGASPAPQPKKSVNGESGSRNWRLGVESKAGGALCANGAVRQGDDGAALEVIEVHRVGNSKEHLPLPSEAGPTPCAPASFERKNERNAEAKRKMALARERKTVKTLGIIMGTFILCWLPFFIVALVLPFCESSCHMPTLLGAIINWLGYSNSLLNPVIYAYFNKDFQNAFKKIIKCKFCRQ
# T1 sequence (P34972 whole entry): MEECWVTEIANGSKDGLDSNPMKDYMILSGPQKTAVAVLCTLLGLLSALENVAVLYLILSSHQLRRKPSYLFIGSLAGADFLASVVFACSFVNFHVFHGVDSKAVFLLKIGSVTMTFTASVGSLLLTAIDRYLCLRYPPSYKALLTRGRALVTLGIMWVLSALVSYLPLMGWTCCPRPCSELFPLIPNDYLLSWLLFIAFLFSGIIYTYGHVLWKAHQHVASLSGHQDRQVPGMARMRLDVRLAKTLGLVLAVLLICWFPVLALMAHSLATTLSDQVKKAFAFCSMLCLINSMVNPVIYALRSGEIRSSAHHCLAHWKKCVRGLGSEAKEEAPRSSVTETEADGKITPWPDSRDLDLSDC
smiles,measurement,setting,value
CCCCCc1cc(O)c2c(c1)OC1(C)CCC3C1C2C3(C)C (racemic) [(±)-CBL],inhibition at 10 µM,[1],68%
same,inhibition at 10 µM,[2],75%
